A short description of this data set: physchem. The data set is classed as physicochemical. The essentials: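 Reversed-phase HPLC per EEC directive 79/831 Annex V.A8, calibrated with straight-chain alkan-2-ones (C3–C16) of known Log P via linear interpolation of retention times. Lambda-max from UV spectra 200–400 nm at chromatographic peaks.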

Marks after values point to notes of the source that are not given here.

Take `CCN(CCc1ccccc1)C(=O)c1cc(Cl)ncc1Oc1cccc(C(F)(F)F)c1` [Compound I-152]: the LogP is 4.44^[a].

Regarding `Cc1ccc(C(F)(F)CNC(=O)c2c(Oc3cccc(C4CC4)c3F)cnc(Cl)c2Cl)c(C)c1` [Compound I-153], the LogP is 5.08^[a].

Regarding `Cc1ccc(CCNC(=O)c2cc(Cl)ncc2Oc2ccc(F)c(Cl)c2)c(C)c1` [Compound I-154], the LogP is 4.72^[a].

Take `C=Cc1cccc(Oc2cnc(Cl)cc2C(=O)NCC(F)(F)c2ccc(C)cc2C)c1` [Compound I-155]: the LogP was 4.96^[a].

On to `N#Cc1ccc(C(F)(F)CNC(=O)c2cc(Cl)ncc2Oc2cccc(C(F)F)c2)c(Cl)c1` [Compound I-156], for which the LogP is 3.87^[a].

In the case of `COCc1cccc(Oc2cnc(Cl)cc2C(=O)NCCc2ccc(C)cc2C)c1` [Compound I-157], the LogP is 4.33^[a].

As to `Cc1ccc(CCNC(=O)c2cc(Cl)nc(Cl)c2Oc2cccc(C(F)(F)F)c2)c(C)c1` [Compound I-158], the LogP was 5.14^[a].

Turning to `Cc1ccc(CCNC(=O)c2cc(Cl)ncc2Oc2cccc(-n3ccc(C(F)(F)F)n3)c2)c(C)c1` [Compound I-159], the LogP is 5.03^[a].

With `CCc1cc(Oc2cnc(Cl)cc2C(=O)NCCc2ccc(C)cc2C)c(C(=O)OC)s1` [Compound I-162], the LogP was 4.51^[a].

Turning to `Cc1ccc(C(F)(F)CNC(=O)c2cc(Cl)ncc2Oc2cncc(C(F)(F)F)c2)c(C)c1` [Compound I-163], the LogP is 4.15^[a].

As for `O=C(c1cc(Cl)ncc1Oc1cccc(C(F)(F)F)c1)N(O)CCc1ccc(Cl)cc1` [Compound I-164], the LogP is 4.01^[a].

`Cc1ccc(CCNC(=O)c2cc(Cl)ncc2Oc2ccc(OC(F)(F)F)cc2)c(C)c1` [Compound I-165]: the LogP is 4.97^[a].

As for `CCC(=O)N(CCc1ccccc1)C(=O)c1cc(Cl)ncc1Oc1cccc(C(F)(F)F)c1` [Compound I-166], the LogP was 5.08^[a].

Regarding `Cc1ccc(CCNC(=O)c2cc(Cl)ncc2Oc2ccc3ccccc3c2)c(C)c1` [Compound I-168], the LogP was 5.03^[a].

As for `Cc1ccc(C(F)(F)CNC(=O)c2c(Oc3cccc(C(F)(F)F)c3)cnc(Oc3cccc(C(F)(F)F)c3)c2-n2cccn2)c(C)c1` [Compound I-169], the LogP is 5.53^[a].

Turning to `Cc1ccc(CCNC(=O)c2cc(Cl)ncc2Oc2cccc(N(C)C)c2)c(C)c1` [Compound I-170], the LogP is 4.83^[a].

In the case of `COc1ccc(CCN(C(C)=O)C(=O)c2cc(Cl)ncc2Oc2cccc(C(F)(F)F)c2)cc1` [Compound I-171], the LogP is 4.55^[a].

Turning to `O=C(NCC(F)(F)c1ccc(-c2ccncc2Cl)cc1Cl)c1cc(-c2ccncc2Cl)ncc1Oc1cccc(C(F)(F)F)c1` [Compound I-172], the LogP was 4.33^[a].

In the case of `C=Cc1cc(C(=O)NCC(F)(F)c2ccc(C)cc2C)c(Oc2cccc(C3CC3)c2F)cn1` [Compound I-173], the LogP was 5.04^[a].

As to `CSc1c(Cl)ncc(Oc2cccc(C(F)(F)F)c2)c1C(=O)NCC(F)(F)c1ccc(C)cc1C` [Compound I-174], the LogP is 4.85^[a].

`Cc1ccc(C(F)(F)CNC(=O)c2c(Oc3cccc(Cl)c3)cnc(Cl)c2Cl)c(C)c1` [Compound I-175]: the LogP was 4.85^[a].

With `CON(CCc1ccc(Cl)cc1Cl)C(=O)c1cc(Cl)ncc1Oc1cccc(C(F)(F)F)c1` [Compound I-177], the LogP is 5.24^[a].

With `Cc1ccc(C(F)(F)CNC(=O)c2c(Br)cnc(Cl)c2Oc2cccc(Cl)c2)c(C)c1` [Compound I-178], the LogP is 5.04^[a].

Turning to `C#Cc1c(Cl)ncc(Oc2cccc(C(F)(F)F)c2)c1C(=O)NCC(F)(F)c1ccc(C)cc1C` [Compound I-179], the LogP was 5.74^[a].

Consider `COc1cccc(Oc2cnc(C)cc2C(=O)NCCc2ccc(C)cc2C)c1` [Compound I-180], for which the LogP is 3.50^[a].

Turning to `Cc1ccc(C(F)(F)CNC(=O)c2c(Oc3cccc(C(F)(F)F)c3)cnc(Cl)c2F)c(C)c1` [Compound I-181], the LogP is 4.85^[a].

As for `COc1cccc(Oc2cnc(C)cc2C(=O)NCC(F)(F)c2ccc(C)cc2C)c1` [Compound I-182], the LogP was 3.71^[a].

As to `Cc1ccc(CCNC(=O)c2cc(C)ncc2Oc2cccc(C(F)F)c2)c(C)c1` [Compound I-183], the LogP is 3.56^[a].

Consider `Cc1ccc(CCNC(=O)c2ccncc2Oc2cccc(C(F)(F)F)c2)c(C)c1` [Compound I-184], for which the LogP is 3.11^[a].

Consider `CCc1ccc(C(F)(F)CNC(=O)c2cc(Cl)ncc2Oc2cccc(C3CC3)c2)c(Cl)c1` [Compound I-185], for which the LogP is 5.49^[a].

Turning to `Cc1ccc(CCNC(=O)c2cc(C3CC3)ncc2Oc2cccc(C3CC3)c2)c(C)c1` [Compound I-186], the LogP was 5.22^[a].

Take `CCc1ccc(C(F)(F)CNC(=O)c2cc(CC)ncc2Oc2cccc(C3CC3)c2F)c(Cl)c1` [Compound I-187]: the LogP is 5.45^[a].

`Cc1ccc(C(F)(F)CNC(=O)c2c(Oc3cccc(C(F)(F)F)c3)cnc(Cl)c2-c2ccccc2)c(C)c1` [Compound I-188]: the LogP was 5.12^[a].

Regarding `C#Cc1cc(C(=O)NCCc2ccc(C)cc2C)c(Oc2cccc(C(F)(F)F)c2)cn1` [Compound I-191], the LogP was 4.34^[a].

Consider `O=C(NCCc1ccc(C(F)(F)F)cc1Cl)c1cc(Cl)ncc1Oc1cccc(C(F)(F)F)c1` [Compound I-192], for which the LogP was 4.95^[a].

Regarding `O=C(NCC(F)(F)c1ccc(C2CC2)cc1Cl)c1cc(Cl)ncc1Oc1cccc(C2CC2)c1` [Compound I-193], the LogP was 5.45^[a].

Take `Cc1ccc(CCNC(=O)c2cc(C3CC3)ncc2Oc2cccc(C(F)(F)F)c2)c(C)c1` [Compound I-194]: the LogP was 4.97^[a].

As for `COC(=O)Cc1cccc(Oc2cnc(Cl)cc2C(=O)NCCc2ccc(C)cc2C)c1` [Compound I-196], the LogP was 4.17^[a].

With `O=C(NCCc1ccc2[nH]cnc2c1)c1cc(Cl)ncc1Oc1cccc(C(F)(F)F)c1` [Compound I-197], the LogP is 1.82^[a].

With `C[Si](C)(C)C#Cc1ccc(C(F)(F)CNC(=O)c2cc(Cl)ncc2Oc2cccc(C(F)F)c2)c(Cl)c1` [Compound I-198], the LogP was 5.97^[a].

On to `COc1c(Cl)ncc(Oc2cccc(C(F)(F)F)c2)c1C(=O)NCC(F)(F)c1ccc(C)cc1C` [Compound I-199], for which the LogP is 4.74^[a].

As for `COc1c(Cl)ncc(Oc2cccc(Cl)c2)c1C(=O)NCC(F)(F)c1ccc(C)cc1C` [Compound I-200], the LogP was 4.62^[a].

Regarding `Cc1ccc(C(F)(F)CNC(=O)c2cc(Cl)ncc2Oc2cccc(C(F)(F)F)c2)c(Cl)c1` [Compound I-201], the LogP is 4.66^[a].

As to `Cc1cc(C(=O)NCC(F)c2ccc(Cl)cc2Cl)c(Oc2cccc(C(F)(F)F)c2)cn1` (centres unmarked) [Compound I-202], the LogP was 4.18^[a].

For `COCCc1ccc(C(F)(F)CNC(=O)c2cc(Cl)ncc2Oc2cccc(C(F)F)c2)c(Cl)c1` [Compound I-203], the LogP was 4.14^[a].

`Cc1ccc(CCNC(=O)c2cc(-c3ccncc3Cl)ncc2Oc2cccc(C(F)(F)F)c2)c(C)c1` [Compound I-204]: the LogP was 4.61^[a].

For the compound `Cc1cc(C(=O)NCC(F)c2ccc(Cl)cc2C)c(Oc2cccc(C3CC3)c2F)cn1` (centres unmarked) [Compound I-205], the LogP is 4.37^[a].

In the case of `Cc1ccc(CCNC(=O)c2cc(-c3cn[nH]c3)ncc2Oc2cccc(C(F)(F)F)c2)c(C)c1` [Compound I-206], the LogP is 3.63^[a].

As for `N#CN(CCc1ccc(Cl)cc1)C(=O)c1cc(Cl)ncc1Oc1cccc(C(F)(F)F)c1` [Compound I-207], the LogP was 4.89^[a].

`Cc1ccc(CCNC(=O)c2cc(C(F)(F)F)ncc2Oc2cccc(C(F)(F)F)c2)c(C)c1` [Compound I-208]: the LogP was 5.04^[a].

On to `COc1cccc(Oc2cnc(C)cc2C(=O)NCC(F)c2ccc(C)cc2Cl)c1` (centres unmarked) [Compound I-209], for which the LogP is 3.62^[a].

In the case of `O=C(NCC(F)(F)c1ccc(Br)cc1Cl)c1cc(Cl)ncc1Oc1cccc(C2CC2)c1F` [Compound I-210], the LogP is 5.31^[a].

For `O=C(NCC(F)(F)c1cc(Cl)sc1Cl)c1cc(Cl)ncc1Oc1cccc(C(F)(F)F)c1` [Compound I-211], the LogP was 5.04^[a].

Turning to `CCc1cc(C(=O)NCC(F)(F)c2ccc(C)cc2C)c(Oc2cccc(C3CC3)c2)cn1` [Compound I-212], the LogP is 4.90^[a].

As for `O=C(NCCc1csc2ccc(Cl)cc12)c1cc(Cl)ncc1Oc1cccc(C(F)(F)F)c1` [Compound I-213], the LogP was 5.00^[a].

`Cc1ccc(CCNC(=O)c2cc(Cl)ncc2Oc2cccc(C3CC3)c2)c(C)c1` [Compound I-214]: the LogP was 5.14^[a].

For `N#Cc1nc(Cl)cc(C(=O)NCC(F)(F)c2ccc(Br)cc2Cl)c1Oc1cccc(C(F)(F)F)c1` [Compound I-215], the LogP was 4.81^[a].

`O=C(NCC(F)(F)c1ccc(C2CC2)cc1Cl)c1cc(C2CC2)ncc1Oc1cccc(C2CC2)c1F` [Compound I-216]: the LogP is 5.54^[a].

For the compound `CNc1c(Cl)ncc(Oc2cccc(C(F)(F)F)c2)c1C(=O)NCC(F)(F)c1ccc(C)cc1C` [Compound I-217], the LogP was 4.44^[a].

`CNc1ncc(Oc2cccc(C(F)(F)F)c2)c(C(=O)NCC(F)(F)c2ccc(C)cc2C)c1I` [Compound I-218]: the LogP was 4.55^[a].

For `COc1cccc(Oc2cnc(C)cc2C(=O)NCC(F)c2ccc(Cl)cc2Cl)c1` (centres unmarked) [Compound I-219], the LogP was 3.75^[a].

For `Cc1cc(C(=O)NCC(F)c2ccc(Cl)cc2Cl)c(Oc2cccc(C3CC3)c2)cn1` (centres unmarked) [Compound I-220], the LogP was 4.44^[a].

For the compound `N#Cc1nc(Cl)cc(C(=O)NCC(F)(F)c2ccc(Cl)cc2)c1Oc1cccc(C(F)(F)F)c1` [Compound I-221], the LogP was 4.39^[a].

As for `Cc1ccc(C(F)(F)CNC(=O)c2cc(Cl)ncc2Oc2cccc(C(F)(F)F)c2I)c(C)c1` [Compound I-222], the LogP is 5.08^[a].

Regarding `Cc1ccc(CCNC(=O)c2cc(Cl)ncc2Oc2cnc3ccccc3c2)c(C)c1` [Compound I-223], the LogP was 3.34^[a].
